For one test, the target named is T1, His-hSHIP1 enzyme (Homo sapiens, UniProt Q92835).
T1 sequence (Q92835 1-1189): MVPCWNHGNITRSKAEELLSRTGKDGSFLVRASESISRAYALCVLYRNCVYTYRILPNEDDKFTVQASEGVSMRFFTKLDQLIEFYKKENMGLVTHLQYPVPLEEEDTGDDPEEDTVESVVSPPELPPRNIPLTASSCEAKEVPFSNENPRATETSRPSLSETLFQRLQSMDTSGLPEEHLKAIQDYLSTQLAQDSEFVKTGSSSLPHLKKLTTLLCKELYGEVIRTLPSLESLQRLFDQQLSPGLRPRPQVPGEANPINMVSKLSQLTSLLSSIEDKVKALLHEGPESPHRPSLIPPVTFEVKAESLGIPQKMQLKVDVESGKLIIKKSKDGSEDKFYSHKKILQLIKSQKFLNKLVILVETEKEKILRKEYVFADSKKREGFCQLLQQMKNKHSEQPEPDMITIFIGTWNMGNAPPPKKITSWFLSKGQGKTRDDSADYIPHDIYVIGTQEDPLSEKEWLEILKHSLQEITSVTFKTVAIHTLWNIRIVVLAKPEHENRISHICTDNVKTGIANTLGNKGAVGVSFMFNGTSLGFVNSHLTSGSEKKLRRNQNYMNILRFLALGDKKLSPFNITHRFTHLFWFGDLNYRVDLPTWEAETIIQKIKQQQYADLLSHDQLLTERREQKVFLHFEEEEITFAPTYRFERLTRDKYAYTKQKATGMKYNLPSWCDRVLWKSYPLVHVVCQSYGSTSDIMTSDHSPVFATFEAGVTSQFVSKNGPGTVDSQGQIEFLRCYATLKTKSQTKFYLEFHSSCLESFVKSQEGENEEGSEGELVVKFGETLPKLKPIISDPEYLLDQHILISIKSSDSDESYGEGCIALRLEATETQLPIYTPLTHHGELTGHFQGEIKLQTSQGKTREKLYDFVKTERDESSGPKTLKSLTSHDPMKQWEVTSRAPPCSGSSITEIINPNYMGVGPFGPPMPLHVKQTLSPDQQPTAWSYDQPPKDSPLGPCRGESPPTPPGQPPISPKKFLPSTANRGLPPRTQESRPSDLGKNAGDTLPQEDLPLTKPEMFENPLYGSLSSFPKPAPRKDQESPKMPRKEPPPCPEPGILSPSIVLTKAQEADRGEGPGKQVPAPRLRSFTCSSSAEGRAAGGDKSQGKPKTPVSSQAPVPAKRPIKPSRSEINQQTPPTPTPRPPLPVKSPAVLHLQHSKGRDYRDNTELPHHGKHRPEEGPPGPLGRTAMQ
In words: His-hSHIP1 phosphatase activity assay (IP4 substrate, Biomol Green). It counts as biochemical. The conditions noted are these: percentage increase relative to background; concentrations ≦300 μM. As for the experimental part:
Test compounds were dissolved in 95% ethanol to form stock solutions. Before screening, the stock solutions were diluted with Phosphatase Assay Buffer (20 mM Tris-HCL, 10 mM MgCl2 pH 7.5, 0.02% Tween 20) to form working assay solutions that contained 10% ethanol. The assay was carried out on 96-well microtiter plates using a modified procedure of that reported by Ong et al., Blood 110, 1942-1949, 2007 and Yang et al., Org Lett 7, 1073-1076, 2005, both of which references are incorporated herein by reference in their entirety.
Each reaction contained 5 μL of His-hSHIP1 enzyme (15-20 ng), 10 μL of the substrate, 1,3,4,5-inositol tetrakisphosphate (IP4; 50 μM final), 5 μL of Phosphatase Assay Buffer, and 5 μL of test compound at various concentrations in 10% ethanol (0-300 μM final). Control blanks were also prepared by replacing His-hSHIP1 enzyme, IP4, or test compounds with Phosphatase Assay Buffer. After adding the reaction components in a 96-well microtiter plate on ice, the reaction was mixed by briefly shaking the plate vigorously. The reaction was then incubated at 37° C. for 15 min with gentle shaking followed by addition of 100 μL of Biomol Green Reagent (BIOMOL, PA, USA) to terminate the reaction. The free phosphate released from IP4 by His-hSHIP1 bound to the Biomol Green Reagent, turning the solution green in colour. After incubating the mixture for 20 min at room temperature for colour development, the absorbance was read with a SpectraMax Plus 96-well plate reader (Molecular Devices, Sunnyvale, Calif., USA) at a wavelength of 650 nm.
Percent (%) activation in Table 2 is expressed as a percentage increase relative to background. Scoring is expressed as follows: + (<50%); ++ (≧50% but <65%); +++ (≧65%).

A further test deals with OPM2 cells. The test can be described thus: Inhibition of OPM2 proliferation (BrdU ELISA). In kind it is cell-based. Conditions: Homo sapiens, OPM-2, 72 hours, read-out: Scoring: % inhibition of OPM2 proliferation. As for the experimental part:
Test compounds were dissolved in 100% DMSO to form stock solutions. Prior to screening, the stock solutions were diluted with complete media (RPMI 1640 containing 10% fetal calf serum, 2 mM L-glutamine and 50 U/mL each of penicillin and streptomycin) to form working assay solutions that contain 0.2% DMSO. The assay was initiated by adding 30,000 OPM2 cells (in 50 μL) to 50 μL of representative compounds at concentrations ranging from 0.03 to 30 μM. The cells were incubated for 72 hours in a humidified CO2 incubator with the addition of 10 μM BrdU for the final 6 hours according to the directions from the Roche BrdU Cell Proliferation ELISA kit used to detect proliferation (Roche, Cat. No. 11 647 229 001). OPM2 cells incubated in 0.1% DMSO in complete media were used as a negative control and the PI3Kα Inhibitor 2 (3-[4-(4-morpholinyl)thieno[3,2-d]pyrimidin-2-yl-phenol, Cayman Chemical, Cat. No. 10010177) was used as a positive control for inhibition of proliferation. At the end of the incubation, the plate containing the labeled cells was centrifuged, the supernatant removed and the cell pellets dried at 60° C. for 1 hour and stored at 4° C. until further analysis. Analysis of BrdU incorporation was done according to the manufacturer's instructions.
(Uptake of a labelled nucleoside into DNA is a usual measure of proliferation.)

Where only a bound is given, the exact number is not on record here.

As for `CNC(=O)c1cc(O)c2c(c1)S(=O)(=O)C[C@@H]1[C@@]3(C)CCCC(C)(C)[C@@H]3CC[C@@]21C` [Compound No. 62], at His-hSHIP1 enzyme, the “Scoring: percent (%) activation of His-hSHIP1 enzyme” value (“Scoring: percent (%) activation” for short) is “++ (≧50% but <65%)”. Moreover, the inhibition at 30 µM in the test with OPM2 cells was in the range of 25 to 75%.

Regarding `COc1cc(O)cc2c1[C@]1(C)CC[C@H]3C(C)(C)CCC[C@]3(C)[C@H]1CS2(=O)=O` [compound 57, (1R,10R,11S,16S)-5-hydroxy-3-methoxy-1,11,15,15-tetramethyl-8λ^6-thiatetracyclo[8.8.0.0^2,7.0^11,16]octadeca-2,4,6-triene-8,8-dione], on His-hSHIP1 enzyme, the “Scoring: percent (%) activation” value is recorded as “+ (<50%)”. The inhibition at 30 µM in the test on OPM2 cells is not below 75%. As to `CC1(C)CCC[C@]2(C)[C@H]3CSc4cc(O)cc(C#N)c4[C@]3(C)CC[C@@H]12` [compound 78, (1R,10R,11S,16S)-5-hydroxy-1,11,15,15-tetramethyl-8-thiatetracyclo[8.8.0.0^2,7.0^11,16]octadeca-2,4,6-triene-3-carbonitrile], on His-hSHIP1 enzyme, the “Scoring: percent (%) activation” value is reported as “+ (<50%)”. For the same molecule, in the test on OPM2 cells, the inhibition at 30 µM is not below 75%. For `CNC(=O)c1cc(OC)c2c(c1)S(=O)(=O)C[C@@H]1[C@@]3(C)CCCC(C)(C)[C@@H]3CC[C@@]21C` [compound 81, (1R,10R,11S,16S)-3-methoxy-N,1,11,15,15-pentamethyl-8,8-dioxo-8λ^6-thiatetracyclo[8.8.0.0^2,7.0^11,16]octadeca-2,4,6-triene-5-carboxamide], the “Scoring: percent (%) activation” value on His-hSHIP1 enzyme is “+ (<50%)”. In addition, the inhibition at 30 µM in the test with OPM2 cells is 25 to 75%. On to `CC1(C)CCC[C@]2(C)[C@H]3CS(=O)(=O)c4cc(C(=O)N5CCOCC5)cc(O)c4[C@]3(C)CC[C@@H]12` [compound 87, (1R,10R,11S,16S)-3-hydroxy-1,11,15,15-tetramethyl-5-[(morpholin-4-yl)-carbonyl]-8λ^6-thiatetracyclo[8.8.0.0^2,7.0^11,16]-octadeca-2,4,6-triene-8,8-dione], for which the “Scoring: percent (%) activation” value on His-hSHIP1 enzyme was “++ (≧50% but <65%)”. In addition, the inhibition at 30 µM with OPM2 cells lay in the range of 25 to 75%. Consider `CN1CCN(C(=O)c2cc(O)c3c(c2)S(=O)(=O)C[C@@H]2[C@@]4(C)CCCC(C)(C)[C@@H]4CC[C@@]32C)CC1` [compound 89, (1R,10R,11S,16S)-3-hydroxy-1,11,15,15-tetramethyl-5-[(4-methylpiperazin-1-yl)-carbonyl]-8λ^6-thiatetracyclo[8.8.0.0^2,7.0^11,16]octadeca-2,4,6-triene-8,8-dione], for which the “Scoring: percent (%) activation” value at His-hSHIP1 enzyme is “+ (<50%)”. In addition, the inhibition at 30 µM in the test with OPM2 cells is not below 75%.

`CC1(C)CCC[C@]2(C)[C@H]3CS(=O)(=O)c4cc(C(=O)N5CCC(C(=O)O)CC5)cc(O)c4[C@]3(C)CC[C@@H]12` [compound 98, 1-{[(1R,10R,11S,16S)-3-hydroxy-1,11,15,15-tetramethyl-8,8-dioxo-8λ^6-thiatetracyclo[8.8.0.0^2,7.0^11,16]octadeca-2,4,6-trien-5-yl]carbonyl}piperidine-4-carboxylic acid]: the “Scoring: percent (%) activation” value on His-hSHIP1 enzyme was “+ (<50%)”. Same read-out and setting: then `CC1(C)CCC[C@]2(C)[C@H]3CS(=O)(=O)c4cc(O)cc(C(=O)N5CCNCC5)c4[C@]3(C)CC[C@@H]12` [compound 100, (1R,10R,11S,16S)-5-hydroxy-1,11,15,15-tetramethyl-3-[(piperazin-1-yl)carbonyl]-8λ^6-thiatetracyclo[8.8.0.0^2,7.0^11,16]octadeca-2,4,6-triene-8,8-dione], with “+ (<50%)”; and `COc1cc(OCC(=O)O)cc2c1[C@]1(C)CC[C@H]3C(C)(C)CCC[C@]3(C)[C@H]1CS2(=O)=O` [compound 104, 2-{[(1R,10R,11S,16S)-3-methoxy-1,11,15,15-tetramethyl-8,8-dioxo-8^6-thiatetracyclo[8.8.0.0^2,7.0^11,16]octadeca-2,4,6-trien-5-yl]oxy}acetic acid], with “+ (<50%)”; and `CC1(C)CCC[C@]2(C)[C@H]3CS(=O)(=O)c4cc(OCC(=O)O)cc(O)c4[C@]3(C)CC[C@@H]12` [compound 105, 2-{[(1R,10R,11S,16S)-3-hydroxy-1,11,15,15-tetramethyl-8,8-dioxo-8^6-thiatetracyclo[8.8.0.0^2,7.0^11,16]octadeca-2,4,6-trien-5-yl]oxy}acetic acid], with “+ (<50%)”. Same read-out and setting: then `COc1cc(O)c(CN2CCOCC2)c2c1[C@]1(C)CC[C@H]3C(C)(C)CCC[C@]3(C)[C@H]1CS2(=O)=O` [compound 106, (1R,10R,11S,16S)-5-hydroxy-3-methoxy-1,11,15,15-tetramethyl-6-(morpholin-4-ylmethyl)-8^6-thiatetracyclo[8.8.0.0^2,7.0^11,16]octadeca-2,4,6-triene-8,8-dione], with “+ (<50%)”. On to `CC1(C)CCC[C@]2(C)[C@H]3CS(=O)(=O)c4cc(OCC(=O)O)cc(OCC(=O)O)c4[C@]3(C)CC[C@@H]12` [compound 108, 2-{[(1R,10R,11S,16S)-3-(carboxymethoxy)-1,11,15,15-tetramethyl-8,8-dioxo-8^6-thiatetracyclo[8.8.0.0^2,7.0^11,16]octadeca-2,4,6-trien-5-yl]oxy}acetic acid], for which the inhibition at 30 µM in the test on OPM2 cells was less than 25%. On the same count and under the same terms, then `COc1cc(OCC(=O)N2CCOCC2)cc2c1[C@]1(C)CC[C@H]3C(C)(C)CCC[C@]3(C)[C@H]1CS2(=O)=O` [compound 110, (1R,10R,11S,16S)-3-methoxy-1,11,15,15-tetramethyl-5-[2-(morpholin-4-yl)-2-oxoethoxy]-8^6-thiatetracyclo[8.8.0.0^2,7.0^11,16]octadeca-2,4,6-triene-8,8-dione], with less than 25%; and `COc1cc(OC)c2c(c1N)S(=O)(=O)C[C@@H]1[C@@]3(C)CCCC(C)(C)[C@@H]3CC[C@@]21C` [compound 112, (1R,10R,11S,16S)-6-amino-3,5-dimethoxy-1,11,15,15-tetramethyl-8^6-thiatetracyclo[8.8.0.0^2,7.0^11,16]octadeca-2,4,6-triene-8,8-dione], with not below 75%.

(Values after US8101605B2, “SHIP1 modulators and methods related thereto” (Aquinox Pharmaceuticals Inc., priority 2009, dated 2012).)
